Measured values taken from patent US6900891B2, “Optical sensors for the detection of nitric oxide” (The Regents of the University of Michigan, priority 1999, dated 2005).

Tested on: macrophages derived from BALB/c mice
Assay: Extracellular nitric oxide released by macrophages, measured with fiber sensors
Assay type: cell-based
Settings: FIG. 19; macrophages treated with LPS and INF-γ and inhibited with 1 mM inhibitor
Description: Specifically, said sensors were placed in solution, approximately 0.5 cm from the macrophages.
In one embodiment, the above referenced sensors were used to quantify nitric oxide production by macrophages derived from BALB/c mice. […] Some macrophages were activated by overnight incubation with medium containing 100 U/mL IFN-γ enzyme Corp., Cambridge, Mass.) and 100 ng/mL LPS (List Biological Labs, Inc., Campbell, Calif.). In addition, to activation with IFN-γ and LPS, some cells were also treated with NMMA, (Sigma) to inhibit the production of nitric oxide. Prior to nitric oxide determinations, the macrophages were removed from incubation. For inactivated macrophages, the medium was exchanged for 2 mL Ringer's buffer. […] During measurements, the cells were kept at ambient temperature (25° C.) and 7.5 mg/mL propidium iodide was used to ascertain the degree of cell viability.
In another embodiment, macrophages were derived from the tibia and femur bone marrow of Harlan Sprague-Dawley BALB/c mice were cultured and plated by methods similar to previously published methods. For extracellular measurements with fiber sensors the cells where plated at a density of 2×10^5 on 25 mm coverslips, while those to be used for scrape-loading were plated onto 35 mm petri dishes (Nunc) at a density of 2×10^6. […]

In the case of CNC(=N)NCCC[C@H](N)C(=O)O [Nω-monomethyl-L-arginine, N^ω-monomethyl-L-arginine], the “[NO]” value is reported as 20 µM.
